Data on 9 compounds can be found in paper PMC10128460, “Discovery of the first-in-class potent and isoform-selective human carbonic anhydrase III inhibitors” (Journal of Enzyme Inhibition and Medicinal Chemistry, 2023).

One data set has as its target T1, hCA VB (Homo sapiens, UniProt Q9Y2D0).
T1 construct: made in house
As to the kind of experiment: Stopped-Flow CO2 hydrase assay, hCA VB. The conditions noted are these: mean from 3 assays, errors ± 5–10%. Type of data set: biochemical.

Data set [1] has as its target T2, hCA III (Homo sapiens, UniProt P07451).
T2 construct: made in house
Kind of data set: Stopped-Flow CO2 hydrase assay, hCA III. The format is biochemical. The conditions noted are these: for Selectivity Index (SI) hCA I/hCA III: ratio of KI hCA I to KI hCA III; for Selectivity Index (SI) hCA II/hCA III: ratio of KI hCA II to KI hCA III; for Ki: stopped-flow CO2 hydrase, mean from 3 assays, errors ± 5–10%.
Protocol: (§1) An Applied Photophysics stopped-flow instrument has been used for assaying the CA catalysed CO2 hydration activity[47]. […] The CO2 concentrations ranged from 1.7 to 17 mM for the determination of the kinetic parameters and inhibition constants. […] The uncatalysed rates were determined in the same manner and subtracted from the total observed rates. Stock solutions of inhibitor (0.1 mM) were prepared in distilled − deionized water and dilutions up to 0.01 nM were done thereafter with the assay buffer. Inhibitor and enzyme solutions were preincubated together for 15 min at room temperature before assay to allow for the formation of the E − I complex. The inhibition constants were obtained by nonlinear least-squares methods using PRISM 3 and the Cheng − Prusoff equation, as reported earlier[48]^,[49], and represent the mean from at least three different determinations. […] All hCA isoforms were recombinant ones obtained in-house as reported earlier[50].

Another data set concerns the target T3, hCA VA (Homo sapiens, UniProt P35218).
T3 construct: made in house
Kind of data set: Stopped-Flow CO2 hydrase assay, hCA VA. Type of data set: biochemical.

A further data set concerns the target T4, hCA I (Homo sapiens, UniProt P00915).
T4 construct: made in house
As to the kind of experiment: Stopped-Flow CO2 hydrase assay, hCA I. Type of data set: biochemical. The note with it: mean from 3 assays, errors ± 5–10%.

The target of a further data set is T5, hCA II (Homo sapiens, UniProt P00918).
T5 construct: made in house
Kind of data set: Stopped-Flow CO2 hydrase assay, hCA II. Type of data set: biochemical. The conditions noted are these: mean from 3 assays, errors ± 5–10%.

In another data set the target is T6, hCA VII (Homo sapiens, UniProt P43166).
T6 construct: made in house
T6 sequence (P43166 whole entry): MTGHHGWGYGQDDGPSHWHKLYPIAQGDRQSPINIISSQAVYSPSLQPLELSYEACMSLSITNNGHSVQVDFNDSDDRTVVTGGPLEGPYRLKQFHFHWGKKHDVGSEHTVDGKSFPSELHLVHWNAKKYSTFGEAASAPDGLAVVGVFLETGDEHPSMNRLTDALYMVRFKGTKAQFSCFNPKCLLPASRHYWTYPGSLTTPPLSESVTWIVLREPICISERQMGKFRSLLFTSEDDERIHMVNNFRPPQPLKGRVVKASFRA
Kind of data set: Stopped-Flow CO2 hydrase assay, hCA VII. The format is biochemical. The conditions noted are these: mean from 3 assays, errors ± 5–10%.

The target of another data set is T7, hCA IV (Homo sapiens, UniProt P22748).
T7 construct: made in house
T7 sequence (P22748 19-312): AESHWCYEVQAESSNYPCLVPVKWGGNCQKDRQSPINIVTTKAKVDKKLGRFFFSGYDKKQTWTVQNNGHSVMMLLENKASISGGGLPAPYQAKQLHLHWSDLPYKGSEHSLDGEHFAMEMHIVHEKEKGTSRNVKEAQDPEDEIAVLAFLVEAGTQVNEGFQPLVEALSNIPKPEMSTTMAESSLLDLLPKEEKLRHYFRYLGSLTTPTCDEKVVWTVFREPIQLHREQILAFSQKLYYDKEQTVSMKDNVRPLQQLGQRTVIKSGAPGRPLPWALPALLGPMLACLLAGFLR
As to the kind of experiment: Stopped-Flow CO2 hydrase assay, hCA IV. Type of data set: biochemical. The note with it: mean from 3 assays, errors ± 5–10%.

In another data set the target is T8, hCA XII (Homo sapiens, UniProt O43570).
T8 construct: made in house
T8 sequence (O43570 25-354): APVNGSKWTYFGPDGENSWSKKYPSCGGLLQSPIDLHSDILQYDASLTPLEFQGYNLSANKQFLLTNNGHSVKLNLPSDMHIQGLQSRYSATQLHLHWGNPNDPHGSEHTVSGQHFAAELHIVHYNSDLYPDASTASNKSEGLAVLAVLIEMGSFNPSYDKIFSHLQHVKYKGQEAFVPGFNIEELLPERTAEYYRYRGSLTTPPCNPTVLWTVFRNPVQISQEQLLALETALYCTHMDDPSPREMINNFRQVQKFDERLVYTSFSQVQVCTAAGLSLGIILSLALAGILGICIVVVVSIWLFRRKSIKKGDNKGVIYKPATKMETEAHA
Kind of data set: Stopped-Flow CO2 hydrase assay, hCA XII. The format is biochemical. The conditions noted are these: mean from 3 assays, errors ± 5–10%.

Data set [2] deals with T2, hCA III. On the set-up: method as in PMID 23605884. The note with it: HPLC assay; cited from earlier work.
Setting [3] is: stopped-flow CO2 hydrase, mean from 3 assays, errors ± 5–10%, read-out: KI hCA VA.

“And” between values parts separate entries of the source, which are not always exact repeats. Equal entries are not always repeated. Where two headings read alike, the source gives them in different places.

T3 sequence (P35218 39-305): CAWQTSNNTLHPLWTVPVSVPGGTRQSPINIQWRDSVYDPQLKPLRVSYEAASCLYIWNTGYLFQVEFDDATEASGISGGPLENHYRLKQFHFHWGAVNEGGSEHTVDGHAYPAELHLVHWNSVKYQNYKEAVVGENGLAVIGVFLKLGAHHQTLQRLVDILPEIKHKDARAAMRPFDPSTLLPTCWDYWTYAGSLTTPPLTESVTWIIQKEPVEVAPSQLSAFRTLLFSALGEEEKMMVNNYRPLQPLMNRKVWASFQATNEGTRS
T1 sequence (Q9Y2D0 34-317): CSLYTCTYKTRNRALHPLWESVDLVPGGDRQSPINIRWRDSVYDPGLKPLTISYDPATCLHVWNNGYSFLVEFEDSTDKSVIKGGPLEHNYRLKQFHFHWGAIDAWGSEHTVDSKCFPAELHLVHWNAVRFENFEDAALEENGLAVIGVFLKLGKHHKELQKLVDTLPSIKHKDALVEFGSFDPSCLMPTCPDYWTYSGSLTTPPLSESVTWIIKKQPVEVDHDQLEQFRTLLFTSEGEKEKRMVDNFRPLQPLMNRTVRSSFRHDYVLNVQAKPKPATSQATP
T2 sequence (P07451 whole entry): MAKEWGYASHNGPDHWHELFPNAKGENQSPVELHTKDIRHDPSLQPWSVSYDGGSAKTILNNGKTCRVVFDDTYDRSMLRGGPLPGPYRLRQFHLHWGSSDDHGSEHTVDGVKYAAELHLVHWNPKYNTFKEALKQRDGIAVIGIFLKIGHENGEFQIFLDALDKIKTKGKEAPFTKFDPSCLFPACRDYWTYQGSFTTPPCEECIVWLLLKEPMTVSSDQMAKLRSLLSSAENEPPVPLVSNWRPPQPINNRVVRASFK
T4 sequence (P00915 whole entry): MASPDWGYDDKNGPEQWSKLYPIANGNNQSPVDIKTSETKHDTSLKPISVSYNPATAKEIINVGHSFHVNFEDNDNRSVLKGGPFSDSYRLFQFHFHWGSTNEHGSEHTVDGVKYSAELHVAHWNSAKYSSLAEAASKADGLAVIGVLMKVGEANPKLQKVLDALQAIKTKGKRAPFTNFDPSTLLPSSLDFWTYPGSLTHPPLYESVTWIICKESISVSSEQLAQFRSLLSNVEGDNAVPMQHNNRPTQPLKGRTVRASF
Protocol for hCA IV: as §1
Protocol for hCA VA: as §1
Protocol for hCA VB: as §1
Protocol for hCA VII: as §1
Protocol for hCA XII: as §1

For `NS(=O)(=O)CCCCn1cc(COc2ccc(F)cc2)nn1` [Compound 41, 4–(4-((4-Fluorophenoxy)methyl)-1H-1,2,3-triazol-1-yl)butane-1-sulfonamide], the melting point fell in the range of 246 to 248 °C. Besides, the Ki on hCA VB came out at 1.24 µM. In addition, at hCA III [1], the “Selectivity Index (SI) hCA I/hCA III” value stood at 10.4; the “Selectivity Index (SI) hCA II/hCA III” value was 13.14 and 13.1; the Ki amounted to 0.618 µM. In addition, the Ki at hCA VA (setting [3]) was 4.39 µM. Besides, affinity on hCA I was put at a Ki of 6.43 µM. This compound also returned a Ki on hCA II of 8.13 µM. The same compound came in with a Ki at hCA VII of 5.33 µM. Also, the Ki on hCA IV is 5.51 µM. The compound also registered a Ki on hCA XII of 2.1 µM.
For the compound `COc1ccc(OCc2cn(CCCCS(N)(=O)=O)nn2)cc1` [Compound 42, 4–(4-((4-Methoxyphenoxy)methyl)-1H-1,2,3-triazol-1-yl)butane-1-sulfonamide], the melting point lay in the range of 251 to 253 °C. At hCA VB, the Ki amounted to 6.67 µM. For the same compound, on hCA III [1], the “Selectivity Index (SI) hCA II/hCA III” value amounted to 5.8 and affinity was put at a Ki of 0.676 µM. Further, the Ki at hCA VA (setting [3]) was found to be 6.04 µM. At hCA I, this compound registered a Ki of 8.54 µM. This compound had a Ki at hCA II of 3.93 µM. The same compound had a Ki at hCA VII of 5.3 µM. The compound further returned a Ki on hCA IV of 5.61 µM. In addition, the affinity on hCA XII corresponds to a Ki of 3.07 µM.
`COc1cccc(OCc2cn(CCCCS(N)(=O)=O)nn2)c1` [Compound 43, 4–(4-((3-Methoxyphenoxy)methyl)-1H-1,2,3-triazol-1-yl)butane-1-sulfonamide] showed a melting point of 186 to 188 °C. In addition, the Ki on hCA VB is 1.63 µM. For the same compound, on hCA III [1], the “Selectivity Index (SI) hCA I/hCA III” value is 5.2; the “Selectivity Index (SI) hCA II/hCA III” value was 13.44 and 13.4; the Ki was 0.444 µM. Moreover, at hCA VA (setting [3]), the Ki is 2.17 µM. Moreover, affinity on hCA I was put at a Ki of 2.32 µM. In addition, on hCA II, the Ki came to 5.97 µM. Besides, the affinity on hCA VII corresponds to a Ki of 3.65 µM. Also, at hCA IV, the affinity corresponds to a Ki of 8.27 µM. In addition, the inhibition constant Ki at hCA XII stood at 2.72 µM.
`NS(=O)(=O)CCCCn1cc(CNC(=O)Nc2ccc(F)cc2)nn1` [Compound 44, 4–(4-((3–(4-Fluorophenyl)ureido)methyl)-1H-1,2,3-triazol-1-yl)butane-1-sulfonamide] came in with a melting point of 284 to 286 °C. This compound registered a Ki at hCA VB of 2.55 µM. Moreover, on hCA III [1], the “Selectivity Index (SI) hCA I/hCA III” value was 9.0; the “Selectivity Index (SI) hCA II/hCA III” value is 12.66 and 12.7; the affinity corresponds to a Ki of 0.599 µM. The compound further gave a Ki on hCA VA of 1.35 µM. At hCA I, this compound had a Ki of 5.38 µM. Besides, the Ki on hCA II turned out to be 7.58 µM. The compound also returned a Ki at hCA VII of 3.35 µM. The Ki on hCA IV amounted to 2.92 µM. In addition, the Ki on hCA XII amounted to 3.71 µM.
In the case of `Cc1ccc(NC(=O)NCc2cn(CCCCS(N)(=O)=O)nn2)cc1` [Compound 45, 4–(4-((3-(p-Tolyl)ureido)methyl)-1H-1,2,3-triazol-1-yl)butane-1-sulfonamide], the melting point lay within 271 to 272 °C. Moreover, the Ki at hCA VB was 8.11 µM. On hCA III [1], the “Selectivity Index (SI) hCA I/hCA III” value was 5.7, the “Selectivity Index (SI) hCA II/hCA III” value is on record as 5.3 and the Ki stood at 0.93 µM. On hCA VA (setting [3]), the Ki came to 3.34 µM. On hCA I, this compound registered a Ki of 5.3 µM. The Ki at hCA II worked out at 4.93 µM. The compound also came in with a Ki on hCA VII of 5.64 µM. Also, at hCA IV, affinity was put at a Ki of 5.74 µM. At hCA XII, this compound came in with a Ki of 6.73 µM.
`NS(=O)(=O)CCCCn1cc(CNC(=O)Nc2ccc(C(F)(F)F)cc2)nn1` [Compound 46, 4–(4-((3–(4-(Trifluoromethyl)phenyl)ureido)methyl)-1H-1,2,3-triazol-1-yl)butane-1-sulfonamide] showed a melting point of more than 300 °C. The compound also displayed a Ki on hCA VB of 5.87 µM. At hCA III [1], the “Selectivity Index (SI) hCA I/hCA III” value came to 9.7, the “Selectivity Index (SI) hCA II/hCA III” value is on record as 1.6 and the inhibition constant Ki was found to be 0.553 µM. For the same compound, on hCA VA (setting [3]), the Ki is 1.8 µM. The compound also yielded a Ki at hCA I of 5.39 µM. The compound further displayed a Ki on hCA II of 0.879 µM. This compound also registered a Ki on hCA VII of 3.61 µM. At hCA IV, this compound had a Ki of 3.59 µM. At hCA XII, this compound came in with a Ki of 2.63 µM.
In the case of `CCOC(=O)c1ccc(NC(=O)NCc2cn(CCCCS(N)(=O)=O)nn2)cc1` [Compound 47, Ethyl 4–(3-((1–(4-sulfamoylbutyl)-1H-1,2,3-triazol-4-yl)methyl)ureido)benzoate], the melting point lay within 259 to 261 °C. This compound gave a Ki on hCA VB of 1.43 µM. Besides, at hCA III [1], the “Selectivity Index (SI) hCA I/hCA III” value was 13.2; the “Selectivity Index (SI) hCA II/hCA III” value was 1.15 and 1.1; the inhibition constant Ki amounted to 0.493 µM. The Ki on hCA VA (setting [3]) is 3.82 µM. In addition, at hCA I, the Ki is 6.52 µM. The Ki at hCA II came out at 0.566 µM. The compound also yielded a Ki on hCA VII of 1.95 µM. Besides, the Ki on hCA IV was determined as 2.6 µM. The same compound had a Ki on hCA XII of 2.83 µM.
The compound `COc1cccc(NC(=O)NCc2cn(CCCCS(N)(=O)=O)nn2)c1` [Compound 48, 4–(4-((3–(3-Methoxyphenyl)ureido)methyl)-1H-1,2,3-triazol-1-yl)butane-1-sulfonamide] registered a melting point of 217 to 218 °C. The Ki on hCA VB was determined as 1.14 µM. In addition, on hCA III [1], the “Selectivity Index (SI) hCA I/hCA III” value is reported as 11.6, the “Selectivity Index (SI) hCA II/hCA III” value was 9.7 and the Ki was 0.476 µM. The Ki at hCA VA (setting [3]) stood at 4.16 µM. The same compound registered a Ki at hCA I of 5.52 µM. At hCA II, this compound yielded a Ki of 4.61 µM. In addition, on hCA VII, the Ki worked out at 3.9 µM. This compound gave a Ki on hCA IV of more than 10 µM. The compound also showed a Ki on hCA XII of 4.66 µM.
For `COc1cc(C(=O)O)ccc1O` [vanillic acid], the inhibitory constant (Ki) at hCA III [2] is 87 µM.
